# Experimental data published in patent US10945971B2, “Sphingosine kinase type 1 inhibitors and uses thereof” (Enzo Therapeutics, Inc., priority 2008, dated 2021).
# Tests used:
# Format in all cases: cell-based, human
# LN229 cells [1] = experiment: Colony formation (clonogenic) assay, LN229 cells
# Description: Cells were plated at a density of 1000 cells/well in a 12-well plate in DMEM containing 5% serum. After 8 h, SK1-I was added and 2 h later, the media was changed. After 10 days, cells were fixed in 4% paraformaldehyde and stained with crystal violet (0.05%). Colonies larger then 0.5 mm in diameter were counted.
# LN229 cells [2] = experiment: In vitro invasion into Matrigel, LN229 cells
# Description: Boyden chamber invasion assays were carried out essentially as described (Shida et al. Cancer Res 68:6569-6577, 2008).
# JNK = JNK pathway and p38 MAPK activation, LN229 cells
# Description: (§1) Cells were scraped in buffer containing 20 mM Tris-HCl, pH 7.5, 50 mM NaCl, 50 mM NaF, 30 mM Na4P2O7, 20 mM 2-glycerophosphate, 1 mM Na3VO4, 5 mM EDTA, 2 mM EGTA, 0.5% SDS and protease inhibitor cocktail (1:200 dilution) and probe-sonicated. Equal amounts of protein determined with bicinchoninic acid (Pierce, Rockford, Ill.), were resolved by SDS-PAGE and transferred to nitrocellulose membranes. Blots were blocked with 5% non-fat dry milk in Tris-buffered saline containing 0.1% […] (TBST) for 1 h at room temperature, and then incubated with primary antibodies (1:3,000 in 1% BSA) overnight, followed by the appropriate HRP-conjugated secondary antibodies (1:40,000 in 1% BSA). Immunocomplexes were visualized by enhanced chemiluminescence (Pierce).
# Akt = experiment: Western blotting of Akt phosphorylation, U373 cells
# Description: as §1
# U87 cells = experiment: Proliferation of U87 glioblastoma cells
# Description: Cells were plated at 10,000 cells/well in 48-well plates and allowed to attach for 24 h. Cell proliferation was measured at the indicated times with WST-1 and absorbance was measured in a plate reader at 450 nm with background subtraction at 630 nm. Cell death was detected by trypan blue exclusion assays in which the percent of blue dye incorporating cells were determined using a light microscope and a hemacytometer as described (Yacoub et al. Mol Cancer Ther 7:314-329, 2008). Apoptotic cell death was measured by staining cell nuclei with the Hoechst dye bisbenzimide and apoptotic cells were identified by condensed, fragmented nuclear regions as described previously (Sankala et al. Cancer Res 67:10466-10474, 2007). A minimum of 300 cells was scored.
compound,measurement,setting,value
"CCCCCc1ccc(/C=C/[C@H](O)[C@@H](CO)NC)cc1 [SK1-I, (2R,3S,4E)-N-methyl-5-(4′-pentylphenyl)-2-aminopent-4-ene-1,3-diol]",long-term survival in clonogenic assays,LN229 cells [1],markedly suppressed
same,"LPA-, serum- and EGF-stimulated in vitro invasion of Matrigel",LN229 cells [2],greatly attenuated
same,activation of JNK,JNK; LN229,delayed activation of JNK
same,phosphorylation of c-Jun (Ser63/73) and ATF-2 (Thr71),"JNK; LN229, after addition of SK1-I",enhanced phosphorylation
same,p38 MAPK,"JNK; LN229, data not shown",without affecting
same,basal Akt phosphorylation at Thr308 and Ser473,Akt; U373,reduced
same,time to significant inhibitory effect on Akt phosphorylation,Akt; U373,≤ 20 min
same,duration of inhibitory effect on Akt phosphorylation,"Akt; U373, data not shown",at least 24 hours
same,total Akt levels,Akt; after treatment with SK1-I,no significant reductions
same,proliferation,U87 cells,suppress proliferation
